From ChEMBL document CHEMBL1128418, “Synthesis and activity against multidrug resistance in Chinese hamster ovary cells of new acridone-4-carboxamides” (J Med Chem, 1995)
pEC50: −log10 of the molar value.

What was measured:
[1] = system: CHRC5 cell line; test: Reversal of sensitivity of multidrug resistant chinese hamster ovary cell line CHRC/5 expressed as concentration that restores 50% of cytotoxic activity of 5 ug/mL toward doxorubicin; Not active; type: functional, cell-based, Cricetulus griseus
[2] = system: CHRC5 cell line; test: Reversal of sensitivity of multidrug resistant chinese hamster ovary cell line CHRC/5 expressed as concentration that restores 50% of cytotoxic activity of 5 ug/mL toward doxorubicin; type: functional, cell-based; conditions: Cricetulus griseus
[3] = system: CHRC5 cell line; test: Reversal of sensitivity of multidrug resistant chinese hamster ovary cell line CHRC/5 expressed as concentration that restores 50% of cytotoxic activity of 5 ug/mL toward doxorubicin; Toxic alone to cells at 5 uM; type: functional, cell-based, Cricetulus griseus

Structure (SMILES): COc1ccc(CCN(C)CCCN2CCN(C(=O)c3cccc4c(O)c5ccccc5nc34)CC2)cc1OC
- EC50 [1]: Not Active

Structure (SMILES): COc1cc(OC)c2nc3c(C(=O)Nc4ccc(CCN(C)Cc5ccc(OC)c(OC)c5)cc4)cccc3c(O)c2c1
- pEC50 ([2]; read-out: EC50): 7.66

Structure (SMILES): COc1ccc(CN(C)CCc2ccc(NC(=O)c3cccc4c(O)c5cccc([N+](=O)[O-])c5nc34)cc2)cc1OC
- pEC50 ([2]; read-out: EC50): 6.71

Structure (SMILES): CN(CCOc1ccc(NC(=O)c2cccc3c(=O)c4ccccc4[nH]c23)cc1)Cc1ccc(C(F)(F)F)cc1
- pEC50 ([2]; read-out: EC50): 6.10

Structure (SMILES): COc1ccc(CN(C)C/C=C/c2ccc(NC(=O)c3cccc4c(O)c5ccccc5nc34)cc2)cc1OC
- pEC50 ([2]; read-out: EC50): 6.57

Structure (SMILES): COc1ccc(CN(C)CCCCc2ccc(NC(=O)c3cccc4c(O)c5cccc(N)c5nc34)cc2)cc1OC
- pEC50 ([2]; read-out: EC50): 6.75

Structure (SMILES): COc1ccc(CNCCCOc2ccc(NC(=O)c3cccc4c(=O)c5ccccc5[nH]c34)cc2)cc1OC
- pEC50 ([2]; read-out: EC50): 6.28

Structure (SMILES): COc1cc2c(cc1OC)CN(CCc1ccc(NC(=O)c3cccc4c(O)c5cccc(F)c5nc34)cc1)CC2
- pEC50 ([2]; read-out: EC50): 7.48

Structure (SMILES): CN(CCOc1ccc(NC(=O)c2cccc3c(=O)c4ccccc4[nH]c23)cc1)Cc1ccccc1
- pEC50 ([2]; read-out: EC50): 6.14

Structure (SMILES): COc1ccc(CN(C)CCOc2ccc(NC(=O)c3cccc4nc5ccccc5nc34)cc2)cc1OC
- pEC50 ([2]; read-out: EC50): 6.48

Structure (SMILES): COc1ccc(CN(C)CCc2ccc(NC(=O)c3cccc4c(=O)c5ccccc5n(C)c34)cc2)cc1OC
- pEC50 ([2]; read-out: EC50): 6.68

Structure (SMILES): COc1cc(CCCN(C)Cc2ccc(OC)c(OC)c2)ccc1NC(=O)c1cccc2c(O)c3cccc(OC)c3nc12
- pEC50 ([2]; read-out: EC50): 7.43

Structure (SMILES): COc1ccc(CN(C)CCOc2ccc(NC(=O)c3cccc4c(O)c5cccc(OC)c5nc34)c(C)c2)cc1OC
- pEC50 ([2]; read-out: EC50): 6.55

Structure (SMILES): COc1ccc(CN(C)CCc2ccc(NC(=O)c3cccc4c(O)c5cccc(C)c5nc34)cc2)cc1OC
- pEC50 ([2]; read-out: EC50): 7.68

Structure (SMILES): COc1ccc(CN(C)CCc2ccc(NC(=O)c3cccc4c(O)c5cccc(F)c5nc34)cc2)cc1OC
- pEC50 ([2]; read-out: EC50): 7.74

Structure (SMILES): CN(CCOc1ccc(NC(=O)c2cccc3c(=O)c4ccccc4[nH]c23)cc1)Cc1ccc(F)cc1
- pEC50 ([2]; read-out: EC50): 6.03

Structure (SMILES): COc1ccc(CN(C)Cc2ccc(NC(=O)c3cccc4c(O)c5ccccc5nc34)cc2)cc1OC
- pEC50 ([2]; read-out: EC50): 6.43

Structure (SMILES): COc1ccc(CN(C)CCCCc2ccc(NC(=O)c3cccc4c(O)c5ccccc5nc34)cc2)cc1OC
- pEC50 ([2]; read-out: EC50): 7.52

Structure (SMILES): COc1cc(OCCCN(C)Cc2ccc(OC)c(OC)c2)ccc1NC(=O)c1cccc2c(O)c3cccc(F)c3nc12
- pEC50 ([2]; read-out: EC50): 7.52

Structure (SMILES): COc1cc(CCCN(C)Cc2ccc(OC)c(OC)c2)ccc1NC(=O)c1cccc2c(O)c3cccc(F)c3nc12
- pEC50 ([2]; read-out: EC50): 7.37

Structure (SMILES): COc1ccc(CCN(C)CCOc2ccc(NC(=O)c3cccc4c(Cl)c5ccccc5nc34)cc2)cc1OC
- pEC50 ([2]; read-out: EC50): 6.18

Structure (SMILES): COc1ccc(CN(C)CCc2ccc(NC(=O)c3cccc4c(O)c5cccc(OC)c5nc34)cc2)cc1OC
- pEC50 ([2]; read-out: EC50): 7.68

Structure (SMILES): COc1ccc(CN(C)CCc2ccc(NC(=O)c3cccc4c(O)c5ccccc5nc34)cc2)cc1OC
- pEC50 ([2]; read-out: EC50): 7.57

Structure (SMILES): CSc1ccc(CN(C)CCOc2ccc(NC(=O)c3cccc4c(O)c5ccccc5nc34)cc2)cc1
- pEC50 ([2]; read-out: EC50): 6.16

Structure (SMILES): COc1cc(CCN(C)Cc2ccc(OC)c(OC)c2)ccc1NC(=O)c1cccc2c(O)c3cccc(F)c3nc12
- pEC50 ([2]; read-out: EC50): 7.68

Structure (SMILES): CN(CCOc1ccc(NC(=O)c2cccc3c(=O)c4ccccc4[nH]c23)cc1)Cc1ccc2c(c1)OCO2
- pEC50 ([2]; read-out: EC50): 6.26

Structure (SMILES): COc1ccc(CN(C)CCOc2ccc(NC(=O)c3cccc4c(=O)cc(-c5ccccc5)[nH]c34)cc2)cc1OC
- pEC50 ([2]; read-out: EC50): 6.48

Structure (SMILES): COc1ccc(CCN(C)CCOc2ccc(NC(=O)c3cccc4c3C(=O)c3ccccc3C4=O)cc2)cc1OC
- pEC50 ([2]; read-out: EC50): 5.82

Structure (SMILES): COc1ccc(CN(C)CCOc2ccc(NC(=O)c3cccc4c(O)c5ccccc5nc34)cc2)cc1OC
- pEC50 ([2]; read-out: EC50): 7.05

Structure (SMILES): COc1ccc(CN(C)CCCc2ccc(NC(=O)c3cccc4c(O)c5ccccc5nc34)cc2)cc1OC
- pEC50 ([2]; read-out: EC50): 7.22

Structure (SMILES): COc1ccc(CCN(C)CCOc2ccc(NC(=O)c3cccn4c(=O)c5ccccc5nc34)cc2)cc1OC
- pEC50 ([2]; read-out: EC50): 6.68

Structure (SMILES): COc1ccc(CCN(C)CCCN2CCC(NC(=O)c3cccc4c(=O)c5ccccc5[nH]c34)CC2)cc1OC
- EC50 [1]: Not Active

Structure (SMILES): CCN(CCOc1ccc(NC(=O)c2cccc3c(=O)c4ccccc4[nH]c23)cc1)Cc1ccccc1
- pEC50 ([2]; read-out: EC50): 6.96

Structure (SMILES): COc1ccc(CCN(C)CCOc2ccc(NC(=O)c3cccc4cc5ccccc5nc34)cc2)cc1OC
- EC50 [3]: Toxic

Structure (SMILES): COc1ccc(CCN(C)CCOc2ccc(NC(=O)c3cccc4c3Oc3ccccc3O4)cc2)cc1OC
- pEC50 ([2]; read-out: EC50): 6.34

Structure (SMILES): COc1ccc(CCN(C)CCOc2ccc(NC(=O)c3cccc4c(=O)c5ccccc5sc34)cc2)cc1OC
- pEC50 ([2]; read-out: EC50): 7.05

Structure (SMILES): COc1cc(OCCCN(C)Cc2ccc(OC)c(OC)c2)ccc1NC(=O)c1cccc2c(O)c3cccc(C)c3nc12
- pEC50 ([2]; read-out: EC50): 7.40

Structure (SMILES): COc1cc2c(cc1OC)CN(CCCOc1ccc(NC(=O)c3cccc4c(=O)c5ccccc5[nH]c34)cc1)CC2
- pEC50 ([2]; read-out: EC50): 7.30

Structure (SMILES): COc1cc2c(cc1OC)CN(CCc1ccccc1NC(=O)c1cccc3c(O)c4cccc(OC)c4nc13)CC2
- pEC50 ([2]; read-out: EC50): 6.52

Structure (SMILES): COc1cc2c(cc1OC)CN(CCc1cccc(NC(=O)c3cccc4c(O)c5cccc(OC)c5nc34)c1)CC2
- pEC50 ([2]; read-out: EC50): 6.81

Structure (SMILES): COc1ccc(CN(C)CCc2ccccc2NC(=O)c2cccc3c(O)c4cccc(OC)c4nc23)cc1OC
- pEC50 ([2]; read-out: EC50): 6.33

Structure (SMILES): COc1ccc(CN(C)CCCCCc2ccc(NC(=O)c3cccc4c(O)c5ccccc5nc34)cc2)cc1OC
- pEC50 ([2]; read-out: EC50): 6.82

Structure (SMILES): COc1ccc(CN(C)CCCc2ccccc2NC(=O)c2cccc3c(O)c4cccc(OC)c4nc23)cc1OC
- pEC50 ([2]; read-out: EC50): 6.23

Structure (SMILES): COc1ccc(CCN(C)CCOc2ccc(NC(=O)c3cccc4c3Nc3ccccc3S4)cc2)cc1OC
- pEC50 ([2]; read-out: EC50): 6.74

Structure (SMILES): COc1ccc(CN(C)C/C=C/Cc2ccc(NC(=O)c3cccc4c(O)c5ccccc5nc34)cc2)cc1OC
- pEC50 ([2]; read-out: EC50): 6.82

Structure (SMILES): O=C(Nc1ccc(OCCCN2CCc3ccccc3C2)cc1)c1cccc2c(=O)c3ccccc3[nH]c12
- pEC50 ([2]; read-out: EC50): 6.68

Structure (SMILES): CCN(CC)CCOc1ccc(NC(=O)c2cccc3c(=O)c4ccccc4[nH]c23)cc1
- EC50 [1]: Not Active

Structure (SMILES): COc1ccc(CCN(C)CCCOc2ccc(NC(=O)c3cccc4c(=O)c5ccccc5[nH]c34)cc2)cc1OC
- pEC50 ([2]; read-out: EC50): 7.05

Structure (SMILES): COc1ccc(CN(C)CCc2ccc(NC(=O)c3cccc4c(O)c5cccc(F)c5nc34)c(C)c2)cc1OC
- pEC50 ([2]; read-out: EC50): 7.06

Structure (SMILES): CCc1cc(OCCCN(C)Cc2ccc(OC)c(OC)c2)ccc1NC(=O)c1cccc2c(O)c3cccc(F)c3nc12
- pEC50 ([2]; read-out: EC50): 7.05

Structure (SMILES): CN(CCCCCCCCNC(=O)c1cccc2c(O)c3ccccc3nc12)Cc1ccccc1
- pEC50 ([2]; read-out: EC50): 5.96

Structure (SMILES): COc1ccccc1CN(C)CCOc1ccc(NC(=O)c2cccc3c(=O)c4ccccc4[nH]c23)cc1
- pEC50 ([2]; read-out: EC50): 6.29

Structure (SMILES): Cc1ccc(CN(C)CCOc2ccc(NC(=O)c3cccc4c(=O)c5ccccc5[nH]c34)cc2)cc1
- pEC50 ([2]; read-out: EC50): 6.62

Structure (SMILES): COc1cc2c(cc1OC)CN(CCc1ccc(NC(=O)c3cccc4c(=O)c5cccc(OC)c5[nH]c34)cc1)CC2
- pEC50 ([2]; read-out: EC50): 7.68

Structure (SMILES): COc1ccc(CN(C)CCCSc2ccc(NC(=O)c3cccc4c(O)c5ccccc5nc34)cc2)cc1OC
- pEC50 ([2]; read-out: EC50): 7.35

Structure (SMILES): COc1ccc(CN(C)CCCc2cccc(NC(=O)c3cccc4c(O)c5cccc(OC)c5nc34)c2)cc1OC
- pEC50 ([2]; read-out: EC50): 7.35

Structure (SMILES): COc1cc2c(cc1OC)CN(CCCc1cccc(NC(=O)c3cccc4c(O)c5cccc(OC)c5nc34)c1)CC2
- pEC50 ([2]; read-out: EC50): 7.32

Structure (SMILES): COc1ccc(CN(C)CCc2ccc(NC(=O)c3cccc4c(O)c5cccc(C)c5nc34)c(C)c2)cc1OC
- pEC50 ([2]; read-out: EC50): 7.10

Structure (SMILES): COc1ccc(CCN(C)CCOc2ccc(NC(=O)c3cccc4c(=O)c5ccccc5oc34)cc2)cc1OC
- pEC50 ([2]; read-out: EC50): 6.74

Structure (SMILES): COc1ccc2nc3c(C(=O)Nc4ccc(CCCCN(C)Cc5ccc(OC)c(OC)c5)cc4)cccc3c(O)c2c1
- pEC50 ([2]; read-out: EC50): 6.92

Structure (SMILES): COc1ccc(CN(C)CCOc2ccc(NC(=O)c3cccc4c(=O)c5ccccc5[nH]c34)cc2)cc1
- pEC50 ([2]; read-out: EC50): 6.19

Structure (SMILES): COc1ccc(CN(C)CCCOc2ccc(NC(=O)c3cccc4c(O)c5cccc(F)c5nc34)c(C)c2)cc1OC
- pEC50 ([2]; read-out: EC50): 7.20

Structure (SMILES): COc1ccc(CCN(C)CCCC(C#N)(c2ccc(OC)c(OC)c2)C(C)C)cc1OC (stereo not given)
- pEC50 [2]: 5.52

Structure (SMILES): COc1ccc(CN(C)CCCOc2ccc(NC(=O)c3cccc4c(O)c5cccc(C)c5nc34)c(C)c2)cc1OC
- pEC50 ([2]; read-out: EC50): 7.03

Structure (SMILES): COc1ccc(CN(C)CCCOc2ccc(NC(=O)c3cccc4c(O)c5ccccc5nc34)cc2)cc1OC
- pEC50 ([2]; read-out: EC50): 7.44
